Laboratory results published in patent US20100063065A1 (Inpharmatica Limited, priority 2005, published 2010).
pEC50: −log10 of the molar value.

What follows are compounds tested against T1, PPARδ (Homo sapiens, UniProt Q03181) (assay: Transactivation assay (PPARδ GAL4 assay) in transiently transfected HEK293 cells). Conditions: luciferase reporter, Table 1.
T1 construct: fused to amino acids 147-441 of PPARδ downstream of CMV promoter; expressed in transfected cells; host or cells: HEK293 cells, transiently transfected with pFACMV-PPARδ using Fugene
T1 sequence (Q03181 147-441): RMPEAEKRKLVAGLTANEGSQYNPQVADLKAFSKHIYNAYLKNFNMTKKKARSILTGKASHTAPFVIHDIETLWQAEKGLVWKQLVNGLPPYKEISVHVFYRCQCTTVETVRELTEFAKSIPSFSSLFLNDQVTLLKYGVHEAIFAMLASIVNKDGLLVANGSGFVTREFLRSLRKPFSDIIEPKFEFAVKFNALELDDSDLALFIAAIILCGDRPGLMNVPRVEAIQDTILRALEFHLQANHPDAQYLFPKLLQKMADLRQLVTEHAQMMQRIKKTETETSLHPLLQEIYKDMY
Assay type: cell-based
Description: Compounds were screened for their functional potency in transiently transfected HEK293 cells for their ability to activate PPAR subtypes. Cells were cultured in DMEM (Invitrogen) supplemented with 10% foetal calf serum, glutamine, penicillin and streptomycin and plated at 10 000 cells/well of a 96-well solid white plate and incubated at 37° C./5% CO2 for 24 hours. Media was removed and the cells washed with PBS. Cells were then transiently transfected using Fugene (Roche) with 50 ng pFACMV-PPARδ (plasmid encoding amino acids 1-147 of the GAL4 DNA binding domain, fused to amino acids 147-441 of PPARδ downstream of CMV promoter) and 250 ng pFR-Luc (reporter plasmid containing 5×GAL4 response elements upstream of a luciferase gene), using a ratio of 3:1 Fugene:DNA. 100 μl of this transfection mixture in DMEM (without foetal calf serum) was added to each well, and the incubation continued for a further 24 hours. The cells are then again washed with PBS prior to the addition of 100 μl reduced serum medium (OptiMEM; Invitrogen). Compounds were added (10 μl in 2% DMSO in OptiMEM) to achieve final concentrations between 0-30 μM. The cells were then returned to the incubator for a further 24 hours. 100 μl of luciferase reagent (Bright Glo, Promega) was added directly to each well, and the luminescence determined using a suitable luminometer.
To measure the selectivity of compounds, their ability to transactivate GAL4 fusions of PPARα LBD and PPARγ LBD was determined. The activity of compounds was expressed as a percentage relative to control compounds: PPARγ rosiglitazone (BRL 49653), PPARδ GW501516 (11) or PPARα KCL1999000269 (12). EC50 values were calculated by fitting of the data to a sigmoidal dose response curve.

SMILES	pEC50
CCc1cc(C(=O)c2ccc(OC(F)(F)F)cc2)c(NC(=O)CN[C@@H](C(=O)O)C(C)C)s1 (single isomer, unassigned) [Example 75, 2-({[5-Ethyl-3-(4-trifluoromethoxy-benzoyl)-thiophen-2-ylcarbamoyl]-methyl}-amino)-3-methyl-butyric acid]	> 7.00
CCc1cc(C(=O)c2ccc(OC(F)(F)F)cc2)c(NC(=O)CSC(C)(C)C(=O)O)s1 [Example 2, 2-{[5-Ethyl-3-(4-trifluoromethoxy-benzoyl)-thiophen-2-ylcarbamoyl]-methylsulfanyl}-2-methyl-propionic acid]	> 7.00
CCc1cc(C(=O)c2ccc(OC(F)(F)F)cc2)c(NC(=O)CC(C)(C)CC(=O)O)s1 [Example 3, 4-[5-Ethyl-3-(4-trifluoromethoxy-benzoyl)-thiophen-2-ylcarbamoyl]-3,3-dimethyl-butylic acid]	6.00 to 7.00
CCc1cc(C(=O)c2ccc(OC)cc2)c(NC(=O)CC2(CC(=O)O)CCCC2)s1 [Example 6, (1-{[5-Ethyl-3-(4-methoxy-benzoyl)-thiophen-2-ylcarbamoyl]-methyl}-cyclopentyl)-acetic acid]	4.52 to 6.00
CCc1cc(C(=O)c2ccc(OC)cc2)c(NC(=O)CCCC(=O)O)s1 [Example 7, 4-[5-Ethyl-3-(4-methoxy-benzoyl)-thiophen-2-ylcarbamoyl]-butyric acid]	4.52 to 6.00
CCc1ccc(C(=O)c2cc(CC)sc2NC(=O)CSCC(=O)O)cc1 [Example 9, {[5-Ethyl-3-(4-ethyl-benzoyl)-thiophen-2-ylcarbamoyl]-methylsulfanyl}-acetic acid]	6.00 to 7.00
CCc1cc(C(=O)c2ccc(Oc3ccccc3)cc2)c(NC(=O)CSCC(=O)O)s1 [Example 12, {[5-Ethyl-3-(4-phenoxy-benzoyl)-thiophen-2-ylcarbamoyl]-methylsulfanyl}-acetic acid]	6.00 to 7.00
CCc1cc(C(=O)c2ccc(Oc3ccccc3)cc2)c(NC(=O)CC(C)(C)CC(=O)O)s1 [Example 13, 4-[5-Ethyl-3-(4-phenoxy-benzoyl)-thiophen-2-ylcarbamoyl]-3,3-dimethyl-butyric acid]	4.52 to 6.00
CCc1cc(C(=O)c2ccccc2)c(NC(=O)CSCC(=O)O)s1 [Example 14, [(3-Benzoyl-5-ethyl-thiophen-2-ylcarbamoyl)-methylsulfanyl]-acetic acid]	4.52 to 6.00
CCc1cc(C(=O)c2ccccc2)c(NC(=O)CC(C)(C)CC(=O)O)s1 [Example 16, 4-(3-Benzoyl-5-ethyl-thiophen-2-ylcarbamoyl)-3,3-dimethyl-butyric acid]	4.52 to 6.00
CCc1cc(C(=O)c2ccccc2)c(NC(=O)CC2(CC(=O)O)CCCC2)s1 [Example 17, {1-[(3-Benzoyl-5-ethyl-thiophen-2-ylcarbamoyl)-methyl]-cyclopentyl}-acetic acid]	4.52 to 6.00
CCc1cc(C(=O)c2ccc(F)cc2)c(NC(=O)CSCC(=O)O)s1 [Example 18, {[5-Ethyl-3-(4-fluoro-benzoyl)-thiophen-2-ylcarbamoyl]-methylsulfanyl}-acetic acid]	4.52 to 6.00
CCc1cc(C(=O)c2ccc(F)cc2)c(NC(=O)CC2(CC(=O)O)CCCC2)s1 [Example 21, (1-{[5-Ethyl-3-(4-fluoro-benzoyl)-thiophen-2-ylcarbamoyl]-methyl}-cyclopentyl)-acetic acid]	4.52 to 6.00
CCc1cc(C(=O)c2ccc(Cl)cc2)c(NC(=O)CC2(CC(=O)O)CCCC2)s1 [Example 26, (1-{[3-(4-Chloro-benzoyl)-5-ethyl-thiophen-2-ylcarbamoyl]-methyl}-cyclopentyl)-acetic acid]	4.52 to 6.00
CCc1cc(C(=O)c2ccc(Cl)c(Cl)c2)c(NC(=O)CSCC(=O)O)s1 [Example 28, {[3-(3,4-Dichloro-benzoyl)-5-ethyl-thiophen-2-ylcarbamoyl]-methylsulfanyl}-acetic acid]	> 7.00

The next lines start with the values.

pEC50	SMILES
> 7.00	CCc1cc(C(=O)c2ccc(OC(F)(F)F)cc2)c(NC(=O)CSCC(=O)O)s1 [Example 1, {[5-Ethyl-3-(4-trifluoromethoxy-benzoyl)-thiophen-2-ylcarbamoyl]-methylsulfanyl}-acetic acid]
6.00 to 7.00	CCc1cc(C(=O)c2ccc(OC(F)(F)F)cc2)c(NC(=O)CC2(CC(=O)O)CCCC2)s1 [Example 4, (1-{[5-Ethyl-3-(4-trifluoromethoxy-benzoyl)-thiophen-2-ylcarbamoyl]-methyl}-cyclopentyl)-acetic acid]
6.00 to 7.00	CCc1cc(C(=O)c2ccc(OC)cc2)c(NC(=O)CSC(C)(C)C(=O)O)s1 [Example 5, 2-{[5-Ethyl-3-(4-methoxy-benzoyl)-thiophen-2-ylcarbamoyl]-methylsulfanyl}-2-methyl-propionic acid]
6.00 to 7.00	CCc1cc(C(=O)c2ccc(C)cc2)c(NC(=O)CSCC(=O)O)s1 [Example 8, {[5-Ethyl-3-(4-methyl-benzoyl)-thiophen-2-ylcarbamoyl]-methylsulfanyl}-acetic acid]
6.00 to 7.00	CCc1ccc(C(=O)c2cc(CC)sc2NC(=O)CSC(C)(C)C(=O)O)cc1 [Example 10, 2-{[5-Ethyl-3-(4-ethyl-benzoyl)-thiophen-2-ylcarbamoyl]-methylsulfanyl}-2-methyl-propionic acid]
4.52 to 6.00	CCc1ccc(C(=O)c2cc(CC)sc2NC(=O)CC2(CC(=O)O)CCCC2)cc1 [Example 11, (1-{[5-Ethyl-3-(4-ethyl-benzoyl)-thiophen-2-ylcarbamoyl]-methyl}-cyclopentyl)-acetic acid]
4.52 to 6.00	CCc1cc(C(=O)c2ccccc2)c(NC(=O)CSC(C)(C)C(=O)O)s1 [Example 15, 2-[(3-Benzoyl-5-ethyl-thiophen-2-ylcarbamoyl)-methylsulfanyl]-2-methyl-propionic acid]
6.00 to 7.00	CCc1cc(C(=O)c2ccc(F)cc2)c(NC(=O)CSC(C)(C)C(=O)O)s1 [Example 19, 2-{[5-Ethyl-3-(4-fluoro-benzoyl)-thiophen-2-ylcarbamoyl]-methylsulfanyl}-2-methyl-propionic acid]
4.52 to 6.00	CCc1cc(C(=O)c2ccc(F)cc2)c(NC(=O)CC(C)(C)CC(=O)O)s1 [Example 20, 4-[5-Ethyl-3-(4-fluoro-benzoyl)-thiophen-2-ylcarbamoyl]-3,3-dimethyl-butyric acid]
> 7.00	CCc1cc(C(=O)c2ccc(Br)cc2)c(NC(=O)CSCC(=O)O)s1 [Example 22, {[3-(4-Bromo-benzoyl)-5-ethyl-thiophen-2-ylcarbamoyl]-methylsulfanyl}-acetic acid]
6.00 to 7.00	CCc1cc(C(=O)c2ccc(Cl)cc2)c(NC(=O)CSCC(=O)O)s1 [Example 23, {[3-(4-Chloro-benzoyl)-5-ethyl-thiophen-2-ylcarbamoyl]-methylsulfanyl}-acetic acid]
6.00 to 7.00	CCc1cc(C(=O)c2ccc(Cl)cc2)c(NC(=O)CSC(C)(C)C(=O)O)s1 [Example 24, 2-{[3-(4-Chloro-benzoyl)-5-ethyl-thiophen-2-ylcarbamoyl]-methylsulfanyl}-2-methyl-propionic acid]
4.52 to 6.00	CCc1cc(C(=O)c2ccc(Cl)cc2)c(NC(=O)CC(C)(C)CC(=O)O)s1 [Example 25, 4-[3-(4-Chloro-benzoyl)-5-ethyl-thiophen-2-ylcarbamoyl]-3,3-dimethyl-butyric acid]
6.00 to 7.00	CCc1cc(C(=O)c2cccc(Cl)c2)c(NC(=O)CSCC(=O)O)s1 [Example 27, {[3-(3-Chloro-benzoyl)-5-ethyl-thiophen-2-ylcarbamoyl]-methylsulfanyl}-acetic acid]

Same assay, conditions: luciferase reporter, Table 2

pEC50	SMILES
6.00 to 7.00	CCc1cc(C(=O)c2ccc(OC(F)(F)F)cc2)c(NC(=O)CN2CC(C)CC2C(=O)O)s1 (mixture of isomers) [Example 180, 1-{[5-Ethyl-3-(4-trifluoromethoxy-benzoyl)-thiophen-2-ylcarbamoyl]-methyl}-4-methyl-pyrrolidine-2-carboxylic acid]
4.52 to 6.00	CCc1cc(C(=O)c2ccc(OC(F)(F)F)cc2)c(NC(=O)CN2[C@H](C)CC[C@@H]2C(=O)O)s1 (relative stereo) [Example 178, (2R*,5R*)-1-{[5-Ethyl-3-(4-trifluoromethoxy-benzoyl)-thiophen-2-ylcarbamoyl]-methyl}-5-methyl-pyrrolidine-2-carboxylic acid]
> 7.00	CCc1cc(C(=O)c2ccc(OC(F)(F)F)cc2)c(NC(=O)CN2[C@@H](C(=O)O)CC[C@@H]2C)s1 (relative stereo) [Example 179, (2R*,5S*)-1-{[5-Ethyl-3-(4-trifluoromethoxy-benzoyl)-thiophen-2-ylcarbamoyl]-methyl}-5-methyl-pyrrolidine-2-carboxylic acid]
